# Source: publication PMC8963254, “Effects of Lysine N-ζ-Methylation in Ultrashort Tetrabasic Lipopeptides (UTBLPs) on the Potentiation of Rifampicin, Novobiocin, and Niclosamide in Gram-Negative Bacteria” (Antibiotics, 2022)
# Read-outs that look alike come from different tables or passages of the source. Non-standard residues stand in square brackets, D forms with d. Residues, ends and D or L forms follow the SMILES beside them. *: point of attachment. Lys(Me2) = CN(C)CCCC[C@H](N)C(=O)O; Octanoyl = CCCCCCCC(=O)*
# How the values were obtained:
# E. faecalis ATCC 29212 = type: cell-based, Enterococcus faecalis; settings: ATCC 29212, 18 h
# Method in brief: (§1)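 MIC was determined by broth microdilution following CLSI guidelines. Serially varied compound concentrations were incubated with bacterial inoculum at 5 × 10^5 CFU/mL (final) for 18 h at 37 °C. Growth was scored as turbidity by absorbance at 590 nm.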
# [1] = test system: P. aeruginosa PA262-101856; assay: microbe, parasite or virus in culture; type: cell-based, Pseudomonas aeruginosa; settings: PA262-101856, 18 h
# Method in brief: as §1
# [2] = test system: P. aeruginosa PA259-96196; assay: microbe, parasite or virus in culture; type: cell-based, Pseudomonas aeruginosa; settings: PA259-96196, 18 h
# Method in brief: as §1
# A. baumannii AB027 = assay: microbe, parasite or virus in culture; type: cell-based, Acinetobacter baumannii; settings: AB027, 18 h
# Method in brief: as §1
# A. baumannii AB92247 = assay: microbe, parasite or virus in culture; type: cell-based, Acinetobacter baumannii; settings: AB92247, 18 h
# Method in brief: as §1
# E. cloacae 118564 [3] = assay: microbe, parasite or virus in culture; type: cell-based, Enterobacter cloacae; settings: 118564, 18 h
# Method in brief: as §1
# A. baumannii ATCC 17978 = type: cell-based, Acinetobacter baumannii; settings: for MICUTBLP: UTBLP alone
# Method in brief: (§2)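 Checkerboard synergy assay: antibiotic and OMP combined at varying concentrations with 5 × 10^5 CFU/mL inoculum (final), 37 °C, 18 h; growth read as turbidity at 590 nm. FICI = sum of FICs (MIC in combination / MIC alone); ≤0.5 synergistic, 0.5–4 additive, >4 antagonistic.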
# P. aeruginosa PAO1 [4] = type: cell-based, Pseudomonas aeruginosa; settings: for MICUTBLP: UTBLP alone
# Method in brief: as §2
# [5] = test system: P. aeruginosa PA262-101856; type: cell-based, Pseudomonas aeruginosa; settings: for MICUTBLP: UTBLP alone
# Method in brief: as §2
# [6] = test system: P. aeruginosa PA259-96196; type: cell-based, Pseudomonas aeruginosa; settings: for MICUTBLP: UTBLP alone
# Method in brief: as §2
# S. aureus ATCC 29213 = type: cell-based, Staphylococcus aureus
# Method in brief: as §2
# MRSA ATCC 33592 = type: cell-based, Staphylococcus aureus
# Method in brief: as §2
# P. aeruginosa PAO1 [7] = type: cell-based, Pseudomonas aeruginosa; settings: PAO1, 18 h
# Method in brief: as §1
# MSSE 81388 = type: cell-based, Staphylococcus epidermidis
# Method in brief: as §2
# MRSE 61589 = type: cell-based, Staphylococcus epidermidis
# Method in brief: as §2
# E. cloacae 118564 [8] = type: cell-based, Enterobacter cloacae; settings: for MICUTBLP: UTBLP alone
# Method in brief: as §2
# E. faecium ATCC 27270 = type: cell-based, Enterococcus faecium; settings: ATCC 27270, 18 h
# Method in brief: as §1
# K. pneumoniae 113250 = type: cell-based, Klebsiella pneumoniae; settings: for MICUTBLP: UTBLP alone
# Method in brief: as §2
# [9] = UTBLP in combination with chloramphenicol
# [10] = UTBLP in combination with niclosamide
# [11] = UTBLP in combination with novobiocin
# [12] = UTBLP in combination with rifampicin
# [13] = chloramphenicol in combination with the UTBLP
# [14] = niclosamide in combination with the UTBLP
# [15] = novobiocin in combination with the UTBLP
# [16] = rifampicin in combination with the UTBLP
# [17] = UTBLP alone, plate with chloramphenicol
smiles,measurement,setting,value
CCCCCCCC(=O)NCCCC[C@H](NC(=O)CCCCCCC)C(=O)N[C@@H](CCCCN(C)C)C(=O)N[C@@H](CCCCN(C)C)C(=O)N[C@@H](CCCCN(C)C)C(=O)N[C@@H](CCCCN(C)C)C(N)=O [UTBLP 7] (Octanoyl-K(Octanoyl)[Lys(Me2)][Lys(Me2)][Lys(Me2)][Lys(Me2)]-NH2),MIC,E. faecalis ATCC 29212,64 µg/mL
same,MIC,[1],> 128 µg/mL
same,MIC,[2],> 128 µg/mL
same,MIC,A. baumannii AB027,128 µg/mL
same,MIC,A. baumannii AB92247,32 µg/mL
same,MIC,E. cloacae 118564 [3],> 128 µg/mL
same,Interpretation,A. baumannii ATCC 17978; UTBLP + chloramphenicol,Additive (0.5 < x ≤ 4 is additive)
same,Interpretation,A. baumannii ATCC 17978; UTBLP + niclosamide,Synergy (FICI ≤ 0.5 is synergistic)
same,Interpretation,A. baumannii ATCC 17978; UTBLP + novobiocin,Synergy (FICI ≤ 0.5 is synergistic)
same,Interpretation,A. baumannii ATCC 17978; UTBLP + rifampicin,Synergy (FICI ≤ 0.5 is synergistic)
same,MICUTBLP,A. baumannii ATCC 17978; plate with chloramphenicol,128 µg/mL
same,MICUTBLP,A. baumannii ATCC 17978; plate with niclosamide,128 µg/mL
same,MICUTBLP,A. baumannii ATCC 17978; plate with novobiocin,128 µg/mL
same,MICUTBLP,A. baumannii ATCC 17978; plate with rifampicin,128 µg/mL
same,MICUTBLP [MICcombo],A. baumannii ATCC 17978; [9],0.25 µg/mL
same,MICUTBLP [MICcombo],A. baumannii ATCC 17978; [10],4 µg/mL
same,MICUTBLP [MICcombo],A. baumannii ATCC 17978; [11],4 µg/mL
same,MICUTBLP [MICcombo],A. baumannii ATCC 17978; [12],4 µg/mL
same,MICantibiotic [MICcombo],A. baumannii ATCC 17978; [13],64 µg/mL
same,MICantibiotic [MICcombo],A. baumannii ATCC 17978; [14],4 µg/mL
same,MICantibiotic [MICcombo],A. baumannii ATCC 17978; [15],0.5 µg/mL
same,MICantibiotic [MICcombo],A. baumannii ATCC 17978; [16],0.125 µg/mL
same,Interpretation,P. aeruginosa PAO1 [4]; UTBLP + chloramphenicol,Additive (0.5 < x ≤ 4 is additive)
same,Interpretation,P. aeruginosa PAO1 [4]; UTBLP + niclosamide,Additive (0.5 < x ≤ 4 is additive)
same,Interpretation,P. aeruginosa PAO1 [4]; UTBLP + novobiocin,Synergy (FICI ≤ 0.5 is synergistic)
same,Interpretation,P. aeruginosa PAO1 [4]; UTBLP + rifampicin,Additive (0.5 < x ≤ 4 is additive)
same,MICUTBLP,P. aeruginosa PAO1 [4]; plate with chloramphenicol,> 128 µg/mL
same,MICUTBLP,P. aeruginosa PAO1 [4]; plate with niclosamide,> 128 µg/mL
same,MICUTBLP,P. aeruginosa PAO1 [4]; plate with novobiocin,> 128 µg/mL
same,MICUTBLP,P. aeruginosa PAO1 [4]; plate with rifampicin,> 128 µg/mL
same,MICUTBLP [MICcombo],P. aeruginosa PAO1 [4]; [9],8 µg/mL
same,MICUTBLP [MICcombo],P. aeruginosa PAO1 [4]; [10],0.25 µg/mL
same,MICUTBLP [MICcombo],P. aeruginosa PAO1 [4]; [11],16 µg/mL
same,MICUTBLP [MICcombo],P. aeruginosa PAO1 [4]; [12],16 µg/mL
same,MICantibiotic [MICcombo],P. aeruginosa PAO1 [4]; [13],8 µg/mL
same,MICantibiotic [MICcombo],P. aeruginosa PAO1 [4]; [14],1024 µg/mL
same,MICantibiotic [MICcombo],P. aeruginosa PAO1 [4]; [15],128 µg/mL
same,MICantibiotic [MICcombo],P. aeruginosa PAO1 [4]; [16],4 µg/mL
same,Interpretation,[5]; UTBLP + novobiocin,Additive (0.5 < x ≤ 4 is additive)
same,Interpretation,[5]; UTBLP + rifampicin,Additive (0.5 < x ≤ 4 is additive)
same,MICUTBLP,[5]; plate with novobiocin,> 128 µg/mL
same,MICUTBLP,[5]; plate with rifampicin,> 128 µg/mL
same,MICUTBLP [MICcombo],[5]; [11],16 µg/mL
same,MICUTBLP [MICcombo],[5]; [12],16 µg/mL
same,MICantibiotic [MICcombo],[5]; [15],512 µg/mL
same,MICantibiotic [MICcombo],[5]; [16],512 µg/mL
same,Interpretation,[6]; UTBLP + novobiocin,Additive (0.5 < x ≤ 4 is additive)
same,Interpretation,[6]; UTBLP + rifampicin,Additive (0.5 < x ≤ 4 is additive)
same,MICUTBLP,[6]; plate with novobiocin,> 128 µg/mL
same,MICUTBLP,[6]; plate with rifampicin,> 128 µg/mL
same,MICUTBLP [MICcombo],[6]; [11],16 µg/mL
same,MICUTBLP [MICcombo],[6]; [12],16 µg/mL
same,MICantibiotic [MICcombo],[6]; [15],512 µg/mL
same,MICantibiotic [MICcombo],[6]; [16],8 µg/mL
same,MICUTBLP,S. aureus ATCC 29213; [17],> 128 µg/mL
same,MICUTBLP [MICcombo],S. aureus ATCC 29213; [9],0.25 µg/mL
same,MICchloramphenicol [MICcombo],S. aureus ATCC 29213; [13],8 µg/mL
same,Interpretation,MRSA ATCC 33592; UTBLP + chloramphenicol,Additive (0.5 < x ≤ 4 is additive)
same,MICUTBLP,MRSA ATCC 33592; [17],> 128 µg/mL
same,MICUTBLP [MICcombo],MRSA ATCC 33592; [9],0.25 µg/mL
same,MICchloramphenicol [MICcombo],MRSA ATCC 33592; [13],64 µg/mL
same,MIC,P. aeruginosa PAO1 [7],>128 µg/mL
same,Interpretation,MSSE 81388; UTBLP + chloramphenicol,Additive (0.5 < x ≤ 4 is additive)
same,MICUTBLP,MSSE 81388; [17],32 µg/mL
same,MICUTBLP [MICcombo],MSSE 81388; [9],0.25 µg/mL
same,MICchloramphenicol [MICcombo],MSSE 81388; [13],4 µg/mL
same,Interpretation,MRSE 61589; UTBLP + chloramphenicol,Additive (0.5 < x ≤ 4 is additive)
same,MICUTBLP,MRSE 61589; [17],32 µg/mL
same,MICUTBLP [MICcombo],MRSE 61589; [9],0.25 µg/mL
same,MICchloramphenicol [MICcombo],MRSE 61589; [13],8 µg/mL
same,Interpretation,E. cloacae 118564 [8]; UTBLP + novobiocin,Synergy (FICI ≤ 0.5 is synergistic)
same,Interpretation,E. cloacae 118564 [8]; UTBLP + rifampicin,Synergy (FICI ≤ 0.5 is synergistic)
same,MICUTBLP,E. cloacae 118564 [8]; plate with novobiocin,> 128 µg/mL
same,MICUTBLP,E. cloacae 118564 [8]; plate with rifampicin,> 128 µg/mL
same,MICUTBLP [MICcombo],E. cloacae 118564 [8]; [11],16 µg/mL
same,MICUTBLP [MICcombo],E. cloacae 118564 [8]; [12],16 µg/mL
same,MICantibiotic [MICcombo],E. cloacae 118564 [8]; [15],4 µg/mL
same,MICantibiotic [MICcombo],E. cloacae 118564 [8]; [16],1 µg/mL
same,MIC,E. faecium ATCC 27270,128 µg/mL
same,Interpretation,K. pneumoniae 113250; UTBLP + novobiocin,Synergy (FICI ≤ 0.5 is synergistic)
same,Interpretation,K. pneumoniae 113250; UTBLP + rifampicin,Synergy (FICI ≤ 0.5 is synergistic)
same,MICUTBLP,K. pneumoniae 113250; plate with novobiocin,> 128 µg/mL
same,MICUTBLP,K. pneumoniae 113250; plate with rifampicin,> 128 µg/mL
same,MICUTBLP [MICcombo],K. pneumoniae 113250; [11],8 µg/mL
same,MICUTBLP [MICcombo],K. pneumoniae 113250; [12],16 µg/mL
same,MICantibiotic [MICcombo],K. pneumoniae 113250; [15],8 µg/mL
same,MICantibiotic [MICcombo],K. pneumoniae 113250; [16],2 µg/mL
